A word on the Ki: it is a measure of affinity in units of concentration, obtained from inhibition or displacement. High values mean lower affinity, low ones higher affinity.

Here are results for eight compounds from article PMC3267002 (Bioorganic & medicinal chemistry, 2011).

Each structure is given as a SMILES string. Counter-ions that a name gives are not always drawn. Some results are limits rather than exact numbers.

In test [1] the target is T1, D4 receptor (Homo sapiens, UniProt P21917).
T1 sequence (P21917 1-419): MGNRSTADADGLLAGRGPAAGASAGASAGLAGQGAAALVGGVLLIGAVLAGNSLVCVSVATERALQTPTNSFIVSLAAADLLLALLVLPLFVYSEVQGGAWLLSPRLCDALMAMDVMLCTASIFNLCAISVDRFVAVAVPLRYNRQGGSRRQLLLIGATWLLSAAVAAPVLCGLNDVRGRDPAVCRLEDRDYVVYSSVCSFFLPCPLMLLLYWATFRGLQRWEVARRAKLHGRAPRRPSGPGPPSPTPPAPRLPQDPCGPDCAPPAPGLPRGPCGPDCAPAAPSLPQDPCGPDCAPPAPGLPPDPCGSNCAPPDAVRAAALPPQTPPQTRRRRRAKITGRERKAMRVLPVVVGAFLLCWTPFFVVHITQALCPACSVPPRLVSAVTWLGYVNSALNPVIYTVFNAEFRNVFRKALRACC
Description: NIMH-PDSP radioligand binding, D4. The note with it: compared to the methylene analog (so in the source).

For test [2], the target named is T2, 5HT2C receptor (Homo sapiens, UniProt P28335).
T2 sequence (P28335 33-458): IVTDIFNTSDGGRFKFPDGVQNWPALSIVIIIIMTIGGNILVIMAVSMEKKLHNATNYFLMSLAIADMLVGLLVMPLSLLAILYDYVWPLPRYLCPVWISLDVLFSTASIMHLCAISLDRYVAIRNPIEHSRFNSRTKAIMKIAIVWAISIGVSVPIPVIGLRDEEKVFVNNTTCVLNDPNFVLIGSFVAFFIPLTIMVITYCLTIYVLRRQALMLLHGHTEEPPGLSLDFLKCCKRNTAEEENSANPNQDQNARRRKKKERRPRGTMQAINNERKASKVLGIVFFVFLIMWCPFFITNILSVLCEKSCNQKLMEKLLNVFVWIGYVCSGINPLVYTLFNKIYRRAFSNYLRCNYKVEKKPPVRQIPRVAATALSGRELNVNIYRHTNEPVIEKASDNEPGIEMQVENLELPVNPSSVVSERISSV
Nature of the test: NIMH-PDSP radioligand binding, 5HT2C.

Test [3] deals with D2 receptor (Homo sapiens, UniProt P14416). Description: NIMH-PDSP radioligand binding, D2. As to conditions: compound 15 as the template.
Sequence of D2 receptor (P14416 whole entry): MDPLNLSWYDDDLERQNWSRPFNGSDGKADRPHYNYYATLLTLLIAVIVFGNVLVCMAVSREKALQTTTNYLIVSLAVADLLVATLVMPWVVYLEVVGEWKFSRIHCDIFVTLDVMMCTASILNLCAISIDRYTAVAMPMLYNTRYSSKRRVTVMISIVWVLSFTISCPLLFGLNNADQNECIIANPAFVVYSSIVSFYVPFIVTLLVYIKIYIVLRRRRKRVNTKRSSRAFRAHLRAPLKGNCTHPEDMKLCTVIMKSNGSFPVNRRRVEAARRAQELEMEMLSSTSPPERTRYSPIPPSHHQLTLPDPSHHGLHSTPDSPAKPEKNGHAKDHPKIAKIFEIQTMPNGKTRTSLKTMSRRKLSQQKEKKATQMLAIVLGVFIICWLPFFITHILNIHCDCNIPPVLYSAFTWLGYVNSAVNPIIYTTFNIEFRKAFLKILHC
For test [4], the target named is T3, 5HT1A receptor (Homo sapiens, UniProt P08908).
T3 sequence (P08908 1-422): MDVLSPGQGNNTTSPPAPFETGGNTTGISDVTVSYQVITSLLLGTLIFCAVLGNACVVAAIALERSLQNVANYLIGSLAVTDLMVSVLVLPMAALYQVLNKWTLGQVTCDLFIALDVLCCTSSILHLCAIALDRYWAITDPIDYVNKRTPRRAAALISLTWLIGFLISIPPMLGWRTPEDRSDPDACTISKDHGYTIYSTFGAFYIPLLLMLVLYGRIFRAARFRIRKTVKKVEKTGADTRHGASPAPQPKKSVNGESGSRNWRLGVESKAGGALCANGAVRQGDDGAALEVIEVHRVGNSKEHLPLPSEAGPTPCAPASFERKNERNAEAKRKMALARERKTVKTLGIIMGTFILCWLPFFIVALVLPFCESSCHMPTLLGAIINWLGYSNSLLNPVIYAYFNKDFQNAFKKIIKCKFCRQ
Description: NIMH-PDSP radioligand binding, 5HT1A. As to conditions: compound 15 as the template.

As for `OC1(c2ccc(Cl)cc2)CCN(CCCSc2ccc(F)cc2)CC1` [Compound 6, 4-(4-chlorophenyl)-1-(3-((4-fluorophenyl)thio)propyl)piperidin-4-ol], in test [1], the “decrease in binding at the D4 receptor” value was “over 24 fold”.
As for `OC1(c2ccc(Cl)cc2)CCN(CCCOc2ccc(F)cc2)CC1` [Compound 7, 4-(4-Chloro-phenyl)-1-[3-(4-fluoro-phenoxy)-propyl]-piperidin-4-ol], the “increase in binding at the D4 receptor” value in test [1] is “over 4 fold”.
The compound `Fc1ccc(SCCCN2CCC(c3ccc(Cl)cc3)CC2)cc1` [Compound 8, 4-(4-Chlorophenyl)-1-(3-((4-fluorophenyl)thio)propyl)piperidine hydrochloride] had an inhibition constant Ki in test [2] of over 10 µM.
Still for that read-out and setting: under `Fc1ccc(OCCCN2CCC(c3ccc(Cl)cc3)CC2)cc1` [Compound 9, 4-(4-Chlorophenyl)-1-(3-(4-fluorophenoxy)propyl)piperidine] stands over 10 µM; under `[O-][S+](CCCN1CCC(c2ccc(Cl)cc2)CC1)c1ccc(F)cc1` (centres unmarked) [Compound 10, 4-(4-Chlorophenyl)-1-(3-((4-fluorophenyl)sulfinyl)propyl)piperidine HCl], over 10 µM.
With `Fc1ccc(OCCCN2CCN(c3ccccc3)CC2)cc1` [Compound 16, 1-(3-(4-Fluorophenoxy)propyl)-4-phenylpiperazine], the “increase in binding at the D2 receptor” value in test [3] is listed as “over 10 fold”.
Regarding `Clc1ccc(N2CCN(CCCOc3ccccc3)CC2)cc1` [Compound 17, 1-(4-Chlorophenyl)-4-(3-phenoxypropyl)piperazine HCl], the “binding increased by a factor, 5HT1A receptor” value in test [4] is on record as 3.
Consider `Fc1ccc(OCCCN2CCN(c3ncccn3)CC2)cc1` [Compound 22, 2-(4-(3-(4-Fluorophenoxy)propyl)piperazin-1-yl)pyrimidine], for which the Ki in test [2] was over 10 µM.
